A short description of data set [1]: Growth inhibition, sulforhodamine B (SRB) assay, SKOV-3. Particulars: human, SKOV-3 ovarian carcinoma cells, SKOV-3, 96 hr incubation, tested as salts, read-out: Cytotoxicity - IC50 SKOV-3. The format is cell-based. The protocol:
(§1) Growth inhibition was measured in three human ovarian carcinoma cell lines (A2780, CH1, and SKOV-3) and one human cervix carcinoma cell line (A431) using the sulforhodamine B (SRB) assay. Briefly, between 3000 and 6000 cells were seeded into the wells of 96-well microtiter plates and allowed to attach overnight. Compounds (acid addition and quaternary dimethiodide salts) were dissolved at 500 μM in water and immediately added to wells in quadruplicate at final concentrations of 0.05, 0.25, 1, 5 and 25 μM. Following an incubation period of 96 hr, remaining cells were fixed with ice-cold 10% w/v trichloroacetic acid (30 min) and stained with 0.4% SRB in 1% v/v acetic acid (15 min). Mean absorbance at 540 nm for each drug concentration was expressed as a percentage of the control untreated well absorbance, and IC50 values (concentration required to inhibit cell growth by 50%) were determined for each agent.

For data set [2], the target named is telomerase (Homo sapiens, UniProt O14746). The data set can be described thus: Modified telomeric repeat amplification protocol (TRAP) assay, cell-free. The format is biochemical. Particulars: extracts from A2780 cells, tested as salts, read-out: telIC50 (Telomerase Inhibitory Activity). The protocol: The ability of compounds to inhibit telomerase in a cell-free assay was assessed with a modified TRAP assay using extracts from exponentially growing A2780 human ovarian carcinoma cells. The TRAP assay was performed in 2 steps: (a) telomerase-mediated extension of the forward primer (TS: 5′-AATCCGTCGAGCAGAGTT (SEQ ID NO:3), Oswel Ltd., Southampton, UK) contained in a 40 µL reaction mix comprising TRAP buffer (20 mM Tris-HCl (pH 8.3), 68 mM KCl, 1.5 mM MgCl2, 1 mM EGTA, 0.05% v/v Tween 20), 0.05 μg bovine serum albumin, 50 μM of each deoxynucleotide triphosphate, 0.1 μg TS primer, and 3 μCi of [α-^32P]dCTP (Amersham plc, UK). Protein (40 ng or 20 ng) was then incubated with the reaction mix+agent (acid addition and quaternary dimethiodide salts) at final concentrations of up to 50 μM for 20 min at 25° C. A lysis buffer (no protein) control, heat-inactivated protein control, and 50% protein (20 ng or 10 ng) control were included in each assay; and (b) while heating at 80° C. in a PCR block of a thermal cycler (Hybaid, UK) for 5 min to inactivate telomerase activity, 0.1 μg of reverse CX primer (3′-[…]-5′ (SEQ ID NO:4)) and 2 Units of Taq DNA polymerase (“red hot”, Advanced Biotechnologies) were added. A 3-step PCR was then performed: 94° C. for 30 s, 50° C. for 30 s, and 72° C. for 1 min for 31 cycles. Telomerase-extended PCR products in the presence or absence of compounds were then determined either by electrophoretic separation using 8% w/w acrylamide denaturing gels and analysis by phosphorimaging or autoradiography, or by harvesting on Whatman filters (25 mm glass microfibre) and analysis by liquid scintillation counting.

Data set [3] can be described thus: Growth inhibition, sulforhodamine B (SRB) assay, A431. Type of data set: cell-based. Particulars: human, A431 cervix carcinoma cells, A431, 96 hr incubation, tested as salts, read-out: Cytotoxicity - IC50 A431. The protocol: as §1
Background: In SRB staining, fixed cells bind dye roughly in proportion to their protein.

Data set [4] is described as follows: Growth inhibition, sulforhodamine B (SRB) assay, CH1. The format is cell-based. Particulars: human, CH1 ovarian carcinoma cells, CH1, 96 hr incubation, tested as salts, read-out: Cytotoxicity - IC50 CH1. The protocol:
as §1

The subject of data set [5] is human telomerase. Particulars: as described by Read et al., April 2001; cited from earlier work.
Data set [6] is described as follows: Growth inhibition, sulforhodamine B (SRB) assay, A2780. Type of data set: cell-based. Particulars: human, A2780 ovarian carcinoma cells, A2780, 96 hr incubation, tested as salts, read-out: Cytotoxicity - IC50 A2780. The protocol:
as §1

Each structure is given as a SMILES string. Where only a bound is given, the exact number is not on record here.

Chain of telomerase (O14746 whole entry): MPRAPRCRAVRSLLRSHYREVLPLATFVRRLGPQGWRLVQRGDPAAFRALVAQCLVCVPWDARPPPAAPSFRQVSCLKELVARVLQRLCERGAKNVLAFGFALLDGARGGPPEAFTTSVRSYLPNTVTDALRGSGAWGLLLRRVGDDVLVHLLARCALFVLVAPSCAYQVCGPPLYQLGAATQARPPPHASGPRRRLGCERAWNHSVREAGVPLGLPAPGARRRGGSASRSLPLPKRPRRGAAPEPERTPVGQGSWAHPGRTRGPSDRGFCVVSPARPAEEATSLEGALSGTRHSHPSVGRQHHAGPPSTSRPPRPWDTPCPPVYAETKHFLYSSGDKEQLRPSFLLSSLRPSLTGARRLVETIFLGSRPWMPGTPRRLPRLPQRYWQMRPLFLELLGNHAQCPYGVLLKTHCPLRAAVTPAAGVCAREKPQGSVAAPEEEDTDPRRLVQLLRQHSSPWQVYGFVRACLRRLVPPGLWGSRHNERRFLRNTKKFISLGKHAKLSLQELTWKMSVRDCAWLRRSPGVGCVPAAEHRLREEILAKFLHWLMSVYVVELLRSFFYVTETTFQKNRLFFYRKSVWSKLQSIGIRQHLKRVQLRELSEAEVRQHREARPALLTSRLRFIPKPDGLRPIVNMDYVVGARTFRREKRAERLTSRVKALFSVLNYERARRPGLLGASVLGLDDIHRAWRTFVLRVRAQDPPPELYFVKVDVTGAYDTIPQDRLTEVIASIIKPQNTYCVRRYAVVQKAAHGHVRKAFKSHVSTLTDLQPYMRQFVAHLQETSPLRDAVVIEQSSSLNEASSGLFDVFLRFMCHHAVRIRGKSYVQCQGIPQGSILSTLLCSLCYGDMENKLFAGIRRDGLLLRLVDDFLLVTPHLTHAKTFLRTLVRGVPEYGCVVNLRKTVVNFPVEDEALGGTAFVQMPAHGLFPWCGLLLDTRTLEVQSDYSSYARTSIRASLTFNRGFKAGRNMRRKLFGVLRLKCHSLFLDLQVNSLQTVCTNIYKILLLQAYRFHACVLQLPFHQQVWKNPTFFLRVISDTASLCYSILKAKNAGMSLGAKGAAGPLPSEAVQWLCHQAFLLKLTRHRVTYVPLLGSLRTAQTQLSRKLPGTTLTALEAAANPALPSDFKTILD

Take `CN(C)c1ccc(Nc2c3ccc(NC(=O)CCN4CCCC4)cc3nc3cc(NC(=O)CCN4CCCC4)ccc23)cc1` [BR-ACO-19, N-{9-[4′-(N,N-Dimethylamino)phenylamino]}-3,6-bis(3-pyrrolidinopropionamido)acridine]: the IC50 at 96 h is 13 µM in data set [1], 15.8 µM in data set [3], 10.1 µM in data set [4] and 10 µM in data set [6]. Also, the IC50 in data set [2] was found to be 0.095 µM. Also, the “in vitro inhibitory activity against human telomerase” value in data set [5] is “potent in vitro inhibitory activity”.
Regarding `Nc1ccc(Nc2c3ccc(NC(=O)CCN4CCCC4)cc3nc3cc(NC(=O)CCN4CCCC4)ccc23)cc1` [BR-ACO-20, N-[9-(4′-Aminophenylamino)]-3,6-bis(3-pyrrolidinopropionamido)acridine], the IC50 at 96 h in data set [1], in data set [4] and in data set [6] was greater than 25 µM in each case. Besides, the IC50 in data set [2] was determined as 0.06 µM. The “in vitro inhibitory activity against human telomerase” value in data set [5] was “potent in vitro inhibitory activity”.
Regarding `CN1CCCC1CCNc1c2ccc(NC(=O)CCN3CCCC3)cc2nc2cc(NC(=O)CCN3CCCC3)ccc12` (centres unmarked) [SB-ACI-12, N-{9-[2-(2′-Aminoethyl)-1-methylpyrrolidino]}-3,6-bis(3-pyrrolidinopropionamido)acridine], the IC50 at 96 h in data set [1] was greater than 25 µM; in data set [3], no less than 25 µM; in data set [4] it was greater than 25 µM; in data set [6], greater than 25 µM. Moreover, the IC50 in data set [2] is 0.018 µM.
For the compound `O=C(CCN1CCCC1)Nc1ccc2c(NCc3cccnc3)c3ccc(NC(=O)CCN4CCCC4)cc3nc2c1` [SB-ACI-13, N-[9-(Pyridin-3′-yl-methylamino)]-3,6-bis(3-pyrrolidinopropionamido)acridine], the IC50 at 96 h in data set [1], in data set [3], in data set [4] and in data set [6] was greater than 25 µM in each case. Moreover, in data set [2], the IC50 was determined as 0.066 µM.
`CC(=O)Nc1cccc(Nc2c3ccc(NC(=O)CCN4CCCC4)cc3nc3cc(NC(=O)CCN4CCCC4)ccc23)c1` [SB-ACI-14, N-{9-[(3′-Acetamido)aminophenyl]}-3,6-bis(3-pyrrolidinopropionamido)acridine]: the IC50 at 96 h in data set [1], in data set [3], in data set [4] and in data set [6] was greater than 25 µM each time. In addition, the IC50 in data set [2] came to 0.1 µM.
